This passage reports Activity results from ChEMBL document CHEMBL1765050, “Cyclopropyl and isopropyl derivatives of 11-cis and 9-cis retinals at C-9 and C-13: subtle steric differences with major effects on ligand efficacy in rhodopsin” (J Nat Prod, 2011).

For this assay, the target named is Rhodopsin (Bos taurus) (UniProt P02699). Nature of the assay: Agonist activity at bovine rhodopsin assessed as opsin mediated cognate G protein transducer activation by fluorescence assay. The format is functional. More on the design: concentration or dose not given beside the values.
Chain of Rhodopsin (Bos taurus) (P02699 whole entry): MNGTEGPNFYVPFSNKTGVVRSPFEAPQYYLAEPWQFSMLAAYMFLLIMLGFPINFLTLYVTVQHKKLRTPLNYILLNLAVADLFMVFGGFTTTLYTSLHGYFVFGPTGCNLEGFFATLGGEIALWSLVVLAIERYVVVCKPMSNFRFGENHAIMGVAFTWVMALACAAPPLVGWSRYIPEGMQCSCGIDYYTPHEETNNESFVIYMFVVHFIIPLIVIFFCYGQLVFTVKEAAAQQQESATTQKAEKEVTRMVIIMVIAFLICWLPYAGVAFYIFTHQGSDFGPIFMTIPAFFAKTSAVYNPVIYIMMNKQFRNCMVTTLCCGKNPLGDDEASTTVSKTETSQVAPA
Regarding `CC1=C(/C=C/C(C)=C\C=C\C(=C\C=O)C(C)C)C(C)(C)CCC1`, the Activity was 139%.

Regarding `CC1=C(/C=C/C(=C/C=C\C(C)=C\C=O)C2CC2)C(C)(C)CCC1`, the Activity amounted to 83%.

For the compound `CC1=C(/C=C/C(C)=C\C=C\C(=C\C=O)C2CC2)C(C)(C)CCC1`, the Activity was 53%.

Consider `CC1=C(/C=C/C(C)=C/C=C\C(C)=C\C=O)C(C)(C)CCC1`, for which the Activity was found to be 100%.

As for `CC1=C(/C=C/C(C)=C\C=C\C(C)=C\C=O)C(C)(C)CCC1`, the Activity was 104%.

In the case of `CC1=C(/C=C/C(=C\C=C\C(C)=C\C=O)C2CC2)C(C)(C)CCC1`, the Activity amounted to 60%.
